Experimental data from PMC4073510, “Identification of natural antimicrobial agents to treat dengue infection: In vitro analysis of latarcin peptide activity against dengue virus” (BMC Microbiology, 2014).
Like-named read-outs stand apart in the source and are kept apart here. No end group written: not given here.

Assays:
[1] = tested on: dengue protease NS2B-NS3pro; details: compared to the other standard serine protease inhibitors; cited from earlier work
Text: Previous studies reported various inhibitors against dengue protease, including standard serine protease inhibitors, substrate based inhibitors, and non-substrate based inhibitors.

[2] = target: T1, dengue NS2B-NS3pro (DENV2 serine protease, recombinant single chain NS2B (G4-T-G4) NS3pro) (Dengue virus type 2, UniProt P14340); experiment: Dengue NS2B-NS3 protease (NS2B-NS3pro) assay; format: biochemical, Dengue virus serotype-2 (DENV2); details: 2 μM NS2B-NS3pro, 100 μM Boc-Gly-Arg-Arg-AMC, pH 8.5, 200 mM Tris-HCl, 30 min pre-incubation + 30 min with substrate, fluorescence ex 350/em 440 nm, triplicate, repeated twice, ± SD, read-out: IC50 (inhibitory concentration of 50% of enzyme activity)
T1 construct: 1394–1440 in DENV2 polyprotein; 1476–1660 in DENV2 polyprotein; made in house; host or cells: E. coli
Description: The NS2B-NS3pro assay was performed to examine whether the Ltc 1 peptide inhibits the DENV2 serine protease. Briefly, a single chain NS2B (G4-T-G4) NS3pro was produced as a recombinant protein in E. coli as previously described. The end point reaction mixture was performed in black 96-well plates, which contained 2 μM recombinant NS2B-NS3pro, 100 μM fluorogenic peptide substrate (Boc-Gly-Arg-Arg-AMC) and varying concentrations of the Ltc 1 peptide (0.1 to 40 μM) buffered at pH 8.5 with 200 mM Tris-HCl in a total volume of 200 μl. The reaction mixtures without peptide, substrate with the peptides, enzyme and different concentrations of the peptides were used as controls. […] Measurements were performed in triplicate using a Tecan Infinite M200 Pro fluorescence spectrophotometer (Tecan Group Ltd., Switzerland). […] The fluorescence values obtained with the no-inhibitor control (0.0 μM peptide) were set at 100%, and those in the presence of peptide were calculated as a percentage of the control using non-linear regression in GraphPad Prism (version 5.01) software. The IC50 was calculated from nonlinear regression fitting of the signal vs. concentration data points to the standard dose–response equation Y = Bottom + (Top - Bottom)/(1 + 10^^((X - LogIC50))). […] The inhibition percentage was calculated using the following formula: […]

Vero cells = experiment: Cytotoxicity, Non-Radioactive Cell Proliferation assay; format: cell-based; details: Vero cells (method), 72 h
Description: The cytotoxicity of the Ltc 1 peptides was evaluated by determining the maximal non-toxic dose (MNTD) and the 50% cytotoxic concentration (CC50) of the cells using the Non-Radioactive Cell Proliferation assay (Promega, USA) according to the manufacturer’s instructions. […] Vero cells were seeded at 1×10^4 cells/well in triplicate under optimal conditions (37°C, 5% CO2 in a humidified incubator) in 96-well plates with blank controls (media only) and cell controls (cells only). After an overnight incubation, the cells were treated with increasing concentrations of Ltc 1 peptide (0, 4, 8, 16, 32, 64 and 120 μM) with DMEM medium supplemented with 2% FBS and the cell culture was analysed after 72 h. The percentage of cell viability was calculated as follows: […] (absorbance of treated cells/absorbance of untreated cells) × 100. The MNTD and CC50 values were calculated from the dose-response curves.

HepG2 cells = experiment: Real Time Cell Proliferation Assay (RTCA, xCELLigence); format: cell-based, human
Description: This assay was performed to test the real time effects of the Ltc 1 peptide on cell viability. Cell proliferation was measured using the xCELLigence Real-Time Cellular Analysis (RTCA) system (Roche, Germany) as described previously. Cell viability and growth were monitored continuously after applying increasing concentrations of the Ltc 1 peptide (0, 12.5, 25, 50, 100, 150, 200, 250 μM). Briefly, the background measurements were recorded after adding 100 μl culture medium to the wells. Next, the cells were seeded at a density of 1 × 10^4 cell/well in a 16-well plate with electrodes for 18 h to allow the cells to grow to log phase. The cells were treated with different concentrations of peptide dissolved in cell culture medium and continuously monitored for up to 100 h. The cell sensor impedance was expressed as an arbitrary unit named the cell index. The cell index was recorded every 5 minutes using a RTCA analyser. To eliminate variation between the wells, the cell index values were normalised to the value at the beginning of the treatment.

DENV2 = experiment: Dose-response assay, viral RNA by one-step qRT-PCR; format: cell-based, Dengue virus serotype-2 (DENV2); details: HepG2 infected with DENV2, MOI 2, peptide 0-80 μM added after infection, quadruplicate experiments, ± SD
Description: This assay was performed to evaluate the 50% effective concentration (EC50) of the Ltc 1 peptide against DENV2. HepG2 cells were grown in six-well microplates (1.5 × 10^6 cells/well) for 24 h in quadruplicate experiments. The cell culture media were removed and the cells were washed three times with PBS. Then, fresh medium containing the virus supernatant was added at MOI of 2, followed by incubation for 1 h with gentle shaking every 15 min. The viral residues were removed by washing with PBS, and serial dilutions of the Ltc 1 peptide (0, 2.5, 5, 10, 20, 40, 80 μM) were added. […] The cell supernatants were collected and stored at -80°C for viral load determination using viral RNA and were quantified using one step qReal time-PCR.
The DENV2 copy number was quantified in the culture supernatants using one-step quantitative real-time PCR. Known copies of the viral RNA were 10-fold serially diluted to generate a standard curve. The viral RNA was extracted using the QIAmp viral RNAmini kit (QIAGEN, Germany), and the qRT-PCR was performed using a SYBR Green Master Kit (Qiagen, Germany). Triplicate reactions were performed for each sample, and a no template control was included as a negative control. Absolute quantification was performed using an ABI7500 machine (Applied Biosystems, Foster City, CA). The results were analysed using Sequence Detection Software Version 1.3 (Applied Biosystems, Foster City, CA). The percentage of viral inhibition (%) was calculated as follows: 100 – (viral copy number of treated cells/viral copy number of untreated cells) × 100.

[3] = cited from earlier work
Text: Natural antimicrobial peptides (AMPs) are produced in the majority of living organisms as protection against various pathogens, including viruses. […] Therefore, the objective of this study was to identify and characterise the inhibitory potential of the latarcin peptide (Ltc 1, […]) against dengue virus replication in human cells. Ltc 1 is one of approximately seven latarcin peptides, which are produced in the venom gland of Lachesana tarab ...

mammalian cells = details: cited from earlier work

T1 sequence (P14340 1476-1660): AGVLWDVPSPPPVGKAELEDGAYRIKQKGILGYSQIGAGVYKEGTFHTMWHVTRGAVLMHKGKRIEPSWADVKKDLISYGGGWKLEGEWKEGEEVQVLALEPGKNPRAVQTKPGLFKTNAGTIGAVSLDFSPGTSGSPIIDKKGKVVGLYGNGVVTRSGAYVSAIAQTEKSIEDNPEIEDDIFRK
T1 sequence (P14340 1394-1440): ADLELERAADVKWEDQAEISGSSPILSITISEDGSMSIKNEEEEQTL

Row | Substance | inhibitory effect against the dengue protease [1] | IC50 ([2]; 37°C) | IC50 ([2]; 40°C (high fever-like)) | cell viability (Vero cells; 25 μM peptide) | CC50 (50% cytotoxic concentration) (Vero cells; 0-120 μM peptide, DMEM 2% FBS, 37°C, triplicate, ± SD) | effect on cell proliferation (HepG2 cells; 25 μM, 110 h, cell index similar to untreated control cells) | effect on cell proliferation (HepG2 cells; 50 μM, after 66 h of incubation, HepG2 cells) | maximal non-toxic dose (MNTD) (HepG2 cells; HepG2 cells, real-time cell index, concentrations 0-250 μM) | effect on cell proliferation (HepG2 cells; concentrations higher than 50 μM, all time-points) | EC50 (DENV2; 24 h) | EC50 (DENV2; 48 h) | EC50 (DENV2; 72 h) | haemolytic activity [3] | induction of cell apoptosis (mammalian cells)
1 | aprotinin | picomolar levels | – | – | – | – | – | – | – | – | – | – | – | – | –
2 | SMWSGMWRRKLKKLRNALKKKLKGE [Ltc 1] | – | 12.7 ± 3.2 µM | 6.58 ± 4.1 µM | 80% | approximately 52.51 ± 3.6 μM | insignificant | significantly decreased | 25 µM | toxic to the cells | 8.3 ± 1.2 µM | 7.6 ± 2.7 µM | 6.8 ± 2.5 µM | moderate haemolytic activity | induces cellular changes that lead to cell apoptosis
